Earlier results in patent US10632083B2, “Ophthalmic compositions” (SaCSh Corp., priority 2016, dated 2020).

For `[H]/N=C(\N/C(=N/[H])NCCCCCCNC(=N)NC(=N)Nc1ccc(Cl)cc1)Nc1ccc(Cl)cc1` [chlorhexidine, N,N″″1,6-Hexanediylbis[N′-(4-chlorophenyl)(imidodicarbonimidic diamide)]], the “eye damage after topical chlorhexidine accidentally got into the eyes” value (Tabor et al. 1989, four cases) is listed as “irreversible corneal damage” and the “eye damage after accidental application to patients undergoing eye surgery” value (van Rij et al. 1995, led to bullous keratopathy, all affected patients required corneal transplant) is listed as “immediate corneal edema”.
